In one assay the target is T1, human αVβ6 Integrin (Homo sapiens, UniProt P06756+P18564).
T1 construct: purchased R & D systems 3817-AV
The assay is described as follows: human αVβ6 HTRF binding assay. The procedure:
(§1) All binding assays used the HTRF (homogeneous time resolved fluorescence) technology from Cisbio International, therefore all assays are described as HTRF binding assays. The assay results for the Examples are listed above together with the characterization data. The HTRF binding assays are established for the following integrins: human αVβ6, human αVβ1, human αVβ3, human αVβ5, and human αVβ8. All assays used the following assay buffer: 20 mM Tris, pH 7.4, 1 mM MgCl2, 1 mM MnCl2, 0.01% Tween 20, and 0.01% BSA. Alternatively, a SPA-based assay was used for evaluation of receptor binding.
(§2) The following describes the components and a representative procedure for the human αVβ6 HTRF binding assay: Recombinant human αVβ6 Integrin (R & D systems, 3817-AV) was biotinylated. Biotinylated human αVβ6 Integrin was added to assay vessel at a final concentration of 1.25 nM. FITC-conjugated fibronectin (Cytoskeleton, FNR02) was then added at the final concentration of 5 nM. The mixture was centrifuged at 600 rpm for three minutes using Thermo Fisher Heraeus Multifuge X3 centrifuge and then incubated at RT for an hour. Streptavidin Terbium (Cisbio international 610STLB) was then added at the final concentration of 0.625 nM. The resulting mixture was centrifuged at 600 rpm for three minutes using Thermo Fisher Heraeus Multifuge X3 centrifuge and then incubated at room temperature overnight in dark before reading HTRF signals.
On the technique in general: TR-FRET usually uses a lanthanide donor and a delayed reading to cut background.

For a further assay, the target named is human αVβ1 (Homo sapiens, UniProt P05556+P06756). In words: human αVβ1 HTRF binding assay. The procedure: as §1, §2
Chain of human αVβ1 (P06756 31-992 limits assumed): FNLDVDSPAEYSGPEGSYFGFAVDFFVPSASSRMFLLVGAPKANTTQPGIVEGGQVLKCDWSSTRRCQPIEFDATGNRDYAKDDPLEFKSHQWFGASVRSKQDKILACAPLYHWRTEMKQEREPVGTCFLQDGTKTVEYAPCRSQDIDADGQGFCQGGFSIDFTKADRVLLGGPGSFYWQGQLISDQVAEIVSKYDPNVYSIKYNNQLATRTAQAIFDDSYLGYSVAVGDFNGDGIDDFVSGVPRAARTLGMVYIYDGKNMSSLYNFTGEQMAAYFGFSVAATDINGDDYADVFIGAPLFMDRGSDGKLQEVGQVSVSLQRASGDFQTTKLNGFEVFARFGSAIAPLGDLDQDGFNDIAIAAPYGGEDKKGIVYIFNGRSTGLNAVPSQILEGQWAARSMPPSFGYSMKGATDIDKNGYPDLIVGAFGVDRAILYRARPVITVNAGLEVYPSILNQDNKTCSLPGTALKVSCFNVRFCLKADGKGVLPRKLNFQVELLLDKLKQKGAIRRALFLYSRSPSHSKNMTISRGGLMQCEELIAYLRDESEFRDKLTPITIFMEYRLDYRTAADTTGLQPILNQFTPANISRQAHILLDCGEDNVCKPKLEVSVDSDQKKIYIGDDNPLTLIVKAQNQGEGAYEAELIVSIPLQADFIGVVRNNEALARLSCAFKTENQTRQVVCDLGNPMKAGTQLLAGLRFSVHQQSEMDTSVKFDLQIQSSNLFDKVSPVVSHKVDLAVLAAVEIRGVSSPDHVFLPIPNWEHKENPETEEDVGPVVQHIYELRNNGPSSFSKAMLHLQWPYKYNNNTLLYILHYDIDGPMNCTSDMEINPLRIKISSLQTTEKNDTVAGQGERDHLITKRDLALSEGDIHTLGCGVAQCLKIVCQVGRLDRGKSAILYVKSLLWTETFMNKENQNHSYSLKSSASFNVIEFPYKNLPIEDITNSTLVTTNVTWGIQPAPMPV
Chain of human αVβ1 (P05556 21-728 limits assumed): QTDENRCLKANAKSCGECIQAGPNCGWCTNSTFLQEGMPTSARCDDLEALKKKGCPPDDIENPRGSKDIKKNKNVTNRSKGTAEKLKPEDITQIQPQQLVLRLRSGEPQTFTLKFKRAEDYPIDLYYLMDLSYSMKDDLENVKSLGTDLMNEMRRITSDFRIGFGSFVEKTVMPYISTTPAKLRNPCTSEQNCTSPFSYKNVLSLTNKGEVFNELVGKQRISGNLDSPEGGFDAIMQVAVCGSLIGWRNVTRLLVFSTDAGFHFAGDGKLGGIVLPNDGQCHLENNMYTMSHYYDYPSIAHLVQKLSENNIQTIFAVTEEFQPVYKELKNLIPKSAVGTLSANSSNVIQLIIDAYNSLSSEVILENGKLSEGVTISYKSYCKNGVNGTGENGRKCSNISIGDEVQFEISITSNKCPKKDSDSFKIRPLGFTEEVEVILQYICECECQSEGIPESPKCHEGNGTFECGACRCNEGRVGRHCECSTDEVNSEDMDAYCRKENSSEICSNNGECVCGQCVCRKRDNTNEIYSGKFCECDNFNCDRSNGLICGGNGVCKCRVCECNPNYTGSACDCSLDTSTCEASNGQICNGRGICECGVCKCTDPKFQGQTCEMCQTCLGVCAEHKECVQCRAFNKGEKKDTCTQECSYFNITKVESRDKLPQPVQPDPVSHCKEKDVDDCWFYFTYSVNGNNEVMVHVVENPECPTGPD
Another assay deals with human αVβ3 (Homo sapiens, UniProt P05106+P06756). The assay is described as follows: human αVβ3 HTRF binding assay. The procedure: as §1, §2
Chain of human αVβ3 (P06756 31-992 limits assumed): as the sequence (P06756 31-992 limits assumed) above
Chain of human αVβ3 (P05106 27-718 limits assumed): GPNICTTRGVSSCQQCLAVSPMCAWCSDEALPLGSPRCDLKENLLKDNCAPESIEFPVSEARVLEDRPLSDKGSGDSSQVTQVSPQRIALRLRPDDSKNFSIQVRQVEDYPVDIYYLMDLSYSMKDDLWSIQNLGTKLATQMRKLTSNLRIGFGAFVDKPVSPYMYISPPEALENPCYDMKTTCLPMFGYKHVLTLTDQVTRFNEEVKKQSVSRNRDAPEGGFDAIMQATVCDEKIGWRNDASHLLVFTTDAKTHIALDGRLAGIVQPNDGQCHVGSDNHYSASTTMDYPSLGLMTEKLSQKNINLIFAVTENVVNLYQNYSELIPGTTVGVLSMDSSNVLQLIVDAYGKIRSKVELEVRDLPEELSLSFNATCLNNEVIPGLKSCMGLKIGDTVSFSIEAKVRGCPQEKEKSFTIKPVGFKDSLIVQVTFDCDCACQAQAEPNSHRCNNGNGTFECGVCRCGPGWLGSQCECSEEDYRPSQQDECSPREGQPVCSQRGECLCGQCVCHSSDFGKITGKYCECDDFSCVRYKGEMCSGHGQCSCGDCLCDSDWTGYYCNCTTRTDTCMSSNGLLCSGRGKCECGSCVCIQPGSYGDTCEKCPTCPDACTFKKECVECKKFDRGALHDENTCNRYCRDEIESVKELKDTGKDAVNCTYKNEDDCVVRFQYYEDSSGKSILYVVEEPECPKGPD
The target of the next assay is human αVβ5 (Homo sapiens, UniProt P06756+P18084). In words: human αVβ5 HTRF binding assay. The procedure: as §1, §2
Chain of human αVβ5 (P06756 31-992 limits assumed): as the sequence (P06756 31-992 limits assumed) above
Chain of human αVβ5 (P18084 24-719 limits assumed): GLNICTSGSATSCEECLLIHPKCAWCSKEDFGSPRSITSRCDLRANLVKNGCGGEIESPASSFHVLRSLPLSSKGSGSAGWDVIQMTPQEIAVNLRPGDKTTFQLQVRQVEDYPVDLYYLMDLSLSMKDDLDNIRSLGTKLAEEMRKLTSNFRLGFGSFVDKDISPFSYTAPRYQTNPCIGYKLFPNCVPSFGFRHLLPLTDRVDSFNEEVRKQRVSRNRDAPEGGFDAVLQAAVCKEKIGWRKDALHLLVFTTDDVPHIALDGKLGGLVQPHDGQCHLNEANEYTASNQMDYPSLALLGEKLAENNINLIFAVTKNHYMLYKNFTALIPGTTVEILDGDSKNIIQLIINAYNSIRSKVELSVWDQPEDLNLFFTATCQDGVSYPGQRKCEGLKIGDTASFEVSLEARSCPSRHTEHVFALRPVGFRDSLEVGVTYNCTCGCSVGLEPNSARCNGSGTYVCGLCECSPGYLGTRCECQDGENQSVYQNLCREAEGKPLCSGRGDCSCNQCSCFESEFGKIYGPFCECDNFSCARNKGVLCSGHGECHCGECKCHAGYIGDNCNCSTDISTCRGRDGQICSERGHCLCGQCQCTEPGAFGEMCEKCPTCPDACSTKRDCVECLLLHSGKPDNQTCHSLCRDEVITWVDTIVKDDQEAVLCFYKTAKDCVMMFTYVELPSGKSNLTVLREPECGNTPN
For the next assay, the target named is human αVβ8 (Homo sapiens, UniProt P06756+P26012). The assay is described as follows: human αVβ8 HTRF binding assay. The procedure:
as §1, §2

SMILES strings stand for the structures. Where a name gives a salt, the structure may show the parent alone.

Chain of human αVβ8 (P06756 31-992 limits assumed): as the sequence (P06756 31-992 limits assumed) above
Chain of human αVβ8 (P26012 43-684 limits assumed): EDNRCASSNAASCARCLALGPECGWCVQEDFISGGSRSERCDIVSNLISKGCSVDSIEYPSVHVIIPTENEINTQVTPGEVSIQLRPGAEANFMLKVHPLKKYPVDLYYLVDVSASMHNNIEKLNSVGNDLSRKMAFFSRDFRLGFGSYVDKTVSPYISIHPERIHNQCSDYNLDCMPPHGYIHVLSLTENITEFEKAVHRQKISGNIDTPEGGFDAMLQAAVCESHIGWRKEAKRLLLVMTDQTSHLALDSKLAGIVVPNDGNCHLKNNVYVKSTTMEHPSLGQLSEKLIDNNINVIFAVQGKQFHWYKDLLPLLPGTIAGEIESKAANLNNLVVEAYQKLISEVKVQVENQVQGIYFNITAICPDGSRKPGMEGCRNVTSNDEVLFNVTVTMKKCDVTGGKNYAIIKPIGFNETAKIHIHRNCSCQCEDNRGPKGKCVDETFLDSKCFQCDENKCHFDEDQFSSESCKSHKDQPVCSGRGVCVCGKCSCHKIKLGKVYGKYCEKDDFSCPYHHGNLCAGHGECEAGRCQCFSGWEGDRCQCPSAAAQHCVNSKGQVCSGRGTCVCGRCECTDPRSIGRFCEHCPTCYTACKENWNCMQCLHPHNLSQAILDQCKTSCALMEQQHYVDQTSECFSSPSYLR
T1 sequence (P06756 31-992 limits assumed): as the sequence (P06756 31-992 limits assumed) above
T1 sequence (P18564 22-707 limits assumed): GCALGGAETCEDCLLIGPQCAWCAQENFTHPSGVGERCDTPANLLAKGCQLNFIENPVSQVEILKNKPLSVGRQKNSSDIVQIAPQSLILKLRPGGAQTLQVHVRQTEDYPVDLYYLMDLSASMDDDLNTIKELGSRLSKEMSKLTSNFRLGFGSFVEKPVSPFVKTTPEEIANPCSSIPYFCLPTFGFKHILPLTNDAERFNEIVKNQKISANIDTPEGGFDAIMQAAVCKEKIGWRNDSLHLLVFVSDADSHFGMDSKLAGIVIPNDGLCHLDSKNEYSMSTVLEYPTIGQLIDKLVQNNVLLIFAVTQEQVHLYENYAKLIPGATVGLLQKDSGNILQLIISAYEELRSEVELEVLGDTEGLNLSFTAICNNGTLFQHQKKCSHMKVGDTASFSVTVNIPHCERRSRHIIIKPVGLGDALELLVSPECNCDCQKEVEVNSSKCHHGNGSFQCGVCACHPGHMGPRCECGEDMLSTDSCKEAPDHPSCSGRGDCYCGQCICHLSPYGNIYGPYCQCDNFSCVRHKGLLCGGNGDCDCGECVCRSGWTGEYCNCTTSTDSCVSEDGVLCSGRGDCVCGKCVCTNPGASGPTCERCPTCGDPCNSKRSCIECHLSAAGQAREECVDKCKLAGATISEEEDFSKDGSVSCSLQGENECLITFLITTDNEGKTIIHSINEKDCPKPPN

By IC50 is commonly meant the concentration that inhibits the measured activity by half. Read a high IC50 as a need for much substance. At human αVβ6 Integrin, `COc1ccc([C@H](CC(=O)O)NC(=O)c2cc(CCC3CCc4cccnc4N3)c[nH]2)cc1F` (mixture of isomers) [Example 2, (3S)-3-(3-Fluoro-4-methoxyphenyl)-3-(4-(2-(1,2,3,4-tetrahydro-1,8-naphthyridin-2-yl)ethyl)-1H-pyrrole-2-carboxamido)propanoic Acid] gave an IC50 of 3.75 nM. This counts as single-digit nanomolar.

For `Cc1cc(C)c(S(=O)(=O)N[C@@H](CNC(=O)c2cc(CCC3CCc4cccnc4N3)c[nH]2)C(=O)O)c(C)c1` (mixture of isomers) [Example 24, (2S)-3-(4-(2-(1,2,3,4-Tetrahydro-1,8-naphthyridin-2-yl)ethyl)-1H-pyrrole-2-carboxamido)-2-((2,4,6-trimethylphenyl)sulfonamido)propanoic Acid], the half-inhibitory concentration (IC50) on human αVβ6 Integrin was found to be 0.61 nM; on human αVβ1, 3.03 nM; at human αVβ3, 2 nM; on human αVβ5, 0.23 nM; on human αVβ8 it was 11.9 nM.

For the compound `COc1ccc([C@H](CC(=O)O)NC(=O)c2cc(CCc3ccc4c(n3)NCCC4)c[nH]2)cc1F` [Example 1, (S)-3-(3-Fluoro-4-methoxyphenyl)-3-(4-(2-(5,6,7,8-tetrahydro-1,8-naphthyridin-2-yl)ethyl)-1H-pyrrole-2-carboxamido)propanoic Acid], the IC50 on human αVβ6 Integrin was 2.55 nM.

On to `COc1ccc([C@@H](CC(=O)O)NC(=O)c2cc(CCc3ccc4c(n3)NCCC4)c[nH]2)cc1F` [Example 3], for which the IC50 at human αVβ6 Integrin came to 229 nM.

For `COc1ccc([C@H](CC(=O)O)NC(=O)c2cc(CCc3ccc4c(n3)NCCC4)cn2C)cc1F` [Example 4], the half-maximal inhibitory concentration (IC50) at human αVβ6 Integrin turned out to be 22.1 nM.

Turning to `CCn1cc(CCc2ccc3c(n2)NCCC3)cc1C(=O)N[C@@H](CC(=O)O)c1ccc(OC)c(F)c1` [Example 5], the 50% inhibitory concentration (IC50) on human αVβ6 Integrin was 50.3 nM.

Regarding `COc1ccc([C@H](CC(=O)O)NC(=O)c2cc(CCc3ccc4c(n3)NCCC4)c(C)[nH]2)cc1F` [Example 6], the IC50 at human αVβ6 Integrin was found to be 5.93 nM.

At human αVβ6 Integrin, `COc1ccc([C@H](CC(=O)O)NC(=O)c2cc(CCc3ccc4c(n3)NCCC4)c[nH]2)cn1` [Example 7] gave a half-inhibitory concentration (IC50) of 4 nM.

On human αVβ6 Integrin, `COc1ccc([C@H](CC(=O)O)NC(=O)c2cc(CCc3ccc4c(n3)NCCC4)cn2C)cn1` [Example 8] yielded a half-maximal inhibitory concentration (IC50) of 22.5 nM. This IC50 is about 5.6-fold higher than that of the compound before.

Consider `CCn1cc(CCc2ccc3c(n2)NCCC3)cc1C(=O)N[C@@H](CC(=O)O)c1ccc(OC)nc1` [Example 9], for which, at human αVβ6 Integrin, the IC50 amounted to 46.8 nM.

As to `COc1ccc([C@H](CC(=O)O)NC(=O)c2cc(CCc3ccc4c(n3)NCCC4)c(C)[nH]2)cn1` [Example 10], the IC50 at human αVβ6 Integrin came to 3.96 nM; at human αVβ3, 2.49 nM; on human αVβ5, 10.4 nM; at human αVβ8, 415 nM.

The compound `O=C(O)C[C@H](NC(=O)c1cc(CCc2ccc3c(n2)NCCC3)c[nH]1)c1cc(Cl)cc(Cl)c1` [Example 11] came in with a half-maximal inhibitory concentration (IC50) on human αVβ6 Integrin of 2.03 nM.

At human αVβ6 Integrin, `CC(C)(C)c1cc(Br)cc([C@H](CC(=O)O)NC(=O)c2cc(CCc3ccc4c(n3)NCCC4)c[nH]2)c1` [Example 12] came in with an IC50 of 0.63 nM.

Take `Cc1ncc(C(CC(=O)O)NC(=O)c2cc(CCc3ccc4c(n3)NCCC4)c[nH]2)cn1` (stereo not shown) [Example 13]: the IC50 amounted to 6.7 nM on human αVβ6 Integrin, 4000 nM at human αVβ1, 4.59 nM at human αVβ3 and 3.84 nM on human αVβ5.

For the compound `COc1ncc(C(CC(=O)O)NC(=O)c2cc(CCc3ccc4c(n3)NCCC4)c[nH]2)cn1` (stereo not shown) [Example 14], the 50% inhibitory concentration (IC50) at human αVβ6 Integrin was found to be 7.17 nM; at human αVβ1, 3710 nM; on human αVβ3, 4.69 nM; on human αVβ5, 5.68 nM.

As for `O=C(O)CC(NC(=O)c1cc(CCc2ccc3c(n2)NCCC3)c[nH]1)c1cncnc1` (stereo not shown) [Example 15], the IC50 at human αVβ6 Integrin amounted to 11.9 nM. This counts as double-digit nanomolar.

As for `O=C(O)C[C@H](NC(=O)c1cc(CCc2ccc3c(n2)NCCC3)c[nH]1)c1cnc2ccccc2c1` [Example 16], the concentration for half-maximal inhibition (IC50) at human αVβ6 Integrin turned out to be 1.1 nM; at human αVβ1, 360 nM; on human αVβ3, 3.44 nM; on human αVβ5 it was 1.73 nM.

Turning to `O=C(O)C[C@H](NC(=O)c1cc(CCc2ccc3c(n2)NCCC3)c[nH]1)c1ccc2c(c1)OCC2` [Example 17], the IC50 on human αVβ6 Integrin was determined as 4.63 nM; at human αVβ1, 1220 nM; on human αVβ3 it was 3.68 nM; at human αVβ5, 0.85 nM; on human αVβ8, 3760 nM.

`O=C(O)CC(NC(=O)c1cc(CCc2ccc3c(n2)NCCC3)c[nH]1)c1cnc2ccccc2n1` (stereo not shown) [Example 18]: the IC50 at human αVβ6 Integrin came to 25.9 nM.

Compound `COc1ccc([C@H](CC(=O)O)NC(=O)c2cc(-c3ccc4c(n3)NCCC4)c[nH]2)cc1F` [Example 19] gave a half-maximal inhibitory concentration (IC50) at human αVβ6 Integrin of 81 nM.

On human αVβ6 Integrin, `COc1ccc([C@H](CC(=O)O)NC(=O)c2cc(CCCc3ccc4c(n3)NCCC4)c[nH]2)cn1` [Example 20] had a half-inhibitory concentration (IC50) of 22.4 nM.

On human αVβ6 Integrin, `Cc1ncc([C@H](CC(=O)O)NC(=O)c2cc(CCCc3ccc4c(n3)NCCC4)c[nH]2)cn1` [Example 21] had a 50% inhibitory concentration (IC50) of 167 nM.

Consider `COc1ncc([C@H](CC(=O)O)NC(=O)c2cc(CCCc3ccc4c(n3)NCCC4)c[nH]2)cn1` [Example 22], for which, on human αVβ6 Integrin, the IC50 is 14.5 nM.

In the case of `Cc1cc(C)c(S(=O)(=O)N[C@@H](CNC(=O)c2cc(CCc3ccc4c(n3)NCCC4)c[nH]2)C(=O)O)c(C)c1` [Example 23, (S)-3-(4-(2-(5,6,7,8-Tetrahydro-1,8-naphthyridin-2-yl)ethyl)-1H-pyrrole-2-carboxamido)-2-((2,4,6-trimethylphenyl)sulfonamido)propanoic Acid], the concentration for half-maximal inhibition (IC50) was 1.02 nM at human αVβ6 Integrin, 5.36 nM at human αVβ3, 0.54 nM on human αVβ5 and 9.06 nM at human αVβ8.

`O=C(N[C@@H](CNC(=O)c1cc(CCc2ccc3c(n2)NCCC3)c[nH]1)C(=O)O)OCc1ccccc1` [Example 25, (S)-2-(((Benzyloxy)carbonyl)amino)-3-(4-(2-(5,6,7,8-tetrahydro-1,8-naphthyridin-2-yl)ethyl)-1H-pyrrole-2-carboxamido)propanoic Acid, TFA]: the IC50 at human αVβ6 Integrin amounted to 0.34 nM; at human αVβ3 it was 1.5 nM; on human αVβ5, 0.16 nM; on human αVβ8, 12.6 nM.

On to `O=C(N[C@@H](CNC(=O)c1cc(CCc2ccc3c(n2)NCCC3)c[nH]1)C(=O)O)OC1CCCC1` [Example 26, (S)-2-(((Cyclopentyloxy)carbonyl)amino)-3-(4-(2-(5,6,7,8-tetrahydro-1,8-naphthyridin-2-yl)ethyl)-1H-pyrrole-2-carboxamido)propanoic Acid], for which the IC50 is 0.28 nM on human αVβ6 Integrin, 1.67 nM at human αVβ3, 0.09 nM at human αVβ5 and 8.78 nM at human αVβ8.

The record behind these values is US10717736B2, “Pyrrole amides as alpha V integrin inhibitors” (BRISTOL-MYERS SQUIBB COMPANY, priority 2016, dated 2020).
